Assay results as given in patent US6534039B2, “Extended organic cobalt and nickel magnetic complexes” (priority 2000, dated 2003).

Assays:
[1] = test system: brain tumor (N32 and F98); assay: MRI of brain tumors in rats with contrast agent; format: in vivo, rat
Description: Rats were implanted with tumors by stereotactic infusion of tumor cells into the brain.
Various MRI imaging modes were used in the analysis: T1-weighted, T2-weighted, and T2*-weighted.
Rats weighing about 350 g, seeded with either F98 or N32 cells were used for tumor imaging. A<0.5 mm burr hole was drilled through the skull of the anesthetized rats at the point of inoculation. Tumors were initiated by inoculating one microliter of culture medium, containing 10,000 cultured cells, 4-5 mm deep into the left striatum, at a point 4 mm to the left of the midline in the (serrated) coronal suture. A 27-gauge needle fitted with a depth-limiting plastic collar to ensure cell injection 4-5 mm beneath the skull was connected to a Hamilton microsyringe via flexible tubing. Following a 30-second infusion of the cells, another 30 seconds was taken to allow the cells to settle before removing the needle. For F98 tumor animals, death ensued 24+ days after inoculation.
MRI was performed at day 16 after tumor cell implantation. […] The rats were immediately positioned on a support and MRI was performed in a 1.5 tesla whole-body clinical scanner (Siemens Vision, Germany) with a human extremity (knee) coil. High-resolution turbo spin-echo sagittal imaging was used for selecting slice position with imaging parameters as follows. […]

[2] = test system: regions of wound healing; assay: Wound healing delineation by MRI; format: in vivo, rat; conditions: site opened two weeks prior for injecting tumor cells
Procedure: MRI was performed at day 16 after tumor cell implantation. The animals were anesthetized and injected interperitoneally with either 200 microliters of gadodiamide (287 mg gadodiamide/ml) (Omniscan, Nycomed, Princeton, N.J.) or 200 microliters of the extended cobalt complex (containing 10 mg Co/ml ±30%). The rats were immediately positioned on a support and MRI was performed in a 1.5 tesla whole-body clinical scanner (Siemens Vision, Germany) with a human extremity (knee) coil. High-resolution turbo spin-echo sagittal imaging was used for selecting slice position with imaging parameters as follows. For T2 weighted images: repetition time (TR)=3000 msec; echo time (TE)=25 msec; field of view (FOV)=100×100 mm; matrix size=256×256; image slice thickness (TH)=2 mm. Tumor images were collected at various times after a single interperitoneal injection. Imaging times were 3 min/scan and resolution was […]. Imaging covered a 30 min period after injection.
This is surprising as the vasculature and components of a wounded region differ from normal tissue only subtly, and these differences are not highlighted by the gadodiamide reagent. This type of imaging can be used to detect internal damage, internal bleeding, or other forms of lesions with MRI using the cobalt complex as contrast agent.
Methods were performed as in Example 8.

[3] = rat, in vivo, ip

- ALBm (albumen) [3]: 1.5 g/dL
- ALP (alkaline phosphatase) [3]: 202 IU/L
- BUNm (blood urea nitrogen) [3]: 16 mg/dL
- CK (creatine kinase) [3]: 820 IU/L
- CL (chloride) [3]: 101 mEq/L
- CO2 (carbon dioxide) [3]: 30 mEq/L
- GLUCm (glucose) [3]: 177 mg/dL
- K (potassium) [3]: 5.5 mEq/L
- NA (sodium) [3]: 139 mEq/L
- liver enzyme activity compared to the control [3]: slight increase
SMILES: CNC(=O)CN(CCN(CCN(CC(=O)[O-])CC(=O)NC)CC(=O)[O-])CC(=O)[O-].[Gd+3] [gadodiamide]
- tumor visibility in all MRI imaging modes ([1]; T1-weighted, T2-weighted and T2*-weighted): no trace of any tumors was evident
- enhancement / imaging of brain tumor by MRI ([1]; rats with N32 or F98 tumor, 200 microliters interperitoneally, 1.5 tesla): No enhancement
- image contrast at wound site by MRI [2]: No such contrast was evident
- ALT (alanine transaminase) [3]: 62 IU/L
- AST (aspartate transaminase) [3]: 183 IU/L
